From PubChem BioAssay AID2116 (The Scripps Research Institute Molecular Screening Center, 2009)

Target: Mucolipin-3 (Homo sapiens) (UniProt Q8TDD5)
Test: activators of mucolipin-3 and mucolipin-2 – cell-based, patch clamp, Fura-2 profiling panel (AID 2116)
Conditions: HEK293 cells expressing TRPML3-YFP, TRPML3 Dose Response

Mucolipin-3 (Homo sapiens), sequence (Q8TDD5 whole entry, looked up): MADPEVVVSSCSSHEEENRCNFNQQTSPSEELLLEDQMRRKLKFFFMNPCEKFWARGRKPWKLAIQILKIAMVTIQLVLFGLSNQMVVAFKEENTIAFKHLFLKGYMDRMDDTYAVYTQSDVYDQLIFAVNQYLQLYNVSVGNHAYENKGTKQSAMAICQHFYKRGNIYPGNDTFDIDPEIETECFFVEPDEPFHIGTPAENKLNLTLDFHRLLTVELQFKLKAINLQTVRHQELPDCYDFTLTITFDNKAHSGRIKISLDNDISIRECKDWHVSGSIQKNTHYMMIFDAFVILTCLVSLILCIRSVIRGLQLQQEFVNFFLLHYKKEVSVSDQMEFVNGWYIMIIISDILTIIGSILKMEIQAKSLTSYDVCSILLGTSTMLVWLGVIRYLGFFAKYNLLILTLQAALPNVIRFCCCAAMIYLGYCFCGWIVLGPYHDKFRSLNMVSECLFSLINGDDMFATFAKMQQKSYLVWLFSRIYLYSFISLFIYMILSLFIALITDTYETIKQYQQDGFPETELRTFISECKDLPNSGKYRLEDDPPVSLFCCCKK

Compound: O=S(=O)(Nc1ccccc1N1CCOCC1)c1ccc(Cl)s1
- EC50: 1090 nM

Compound: O=S(=O)(NC1CCCCC1N1CCOCC1)c1ccc(Cl)cc1 (configuration not stated)
- EC50: 450 nM
